Source: patent US12692254B2, “Benzimidazole inhibitors of PAD enzymes” (BRISTOL-MYERS SQUIBB COMPANY, priority 2018, dated 2026)

What follows are compounds tested against human PAD4 (hPAD4) (Homo sapiens, UniProt Q9UM07) (assay: RFMS human PAD4 functional assay (rapid-fire mass spectrum)). Conditions: 5 nM hPAD4 enzyme, 250 μM BAEE, 50 μM Calcium; 30 min preincubation, 90 min reaction at 37° C.
Type: biochemical
Summary of the method: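 PAD4 (10 nM) preincubated 30 min with compound (top final 50 μM), then BAEE substrate added in pH 7.5 HEPES buffer with DTT, 50 μM calcium, TPEN; 90 min at 37° C. After TCA quench, citrulline derivatized with phenyl glyoxal (4 mM final, 30 min, 37° C) and quantified by RapidFire MS against internal standard.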

Chain of human PAD4 (hPAD4) (Q9UM07 whole entry): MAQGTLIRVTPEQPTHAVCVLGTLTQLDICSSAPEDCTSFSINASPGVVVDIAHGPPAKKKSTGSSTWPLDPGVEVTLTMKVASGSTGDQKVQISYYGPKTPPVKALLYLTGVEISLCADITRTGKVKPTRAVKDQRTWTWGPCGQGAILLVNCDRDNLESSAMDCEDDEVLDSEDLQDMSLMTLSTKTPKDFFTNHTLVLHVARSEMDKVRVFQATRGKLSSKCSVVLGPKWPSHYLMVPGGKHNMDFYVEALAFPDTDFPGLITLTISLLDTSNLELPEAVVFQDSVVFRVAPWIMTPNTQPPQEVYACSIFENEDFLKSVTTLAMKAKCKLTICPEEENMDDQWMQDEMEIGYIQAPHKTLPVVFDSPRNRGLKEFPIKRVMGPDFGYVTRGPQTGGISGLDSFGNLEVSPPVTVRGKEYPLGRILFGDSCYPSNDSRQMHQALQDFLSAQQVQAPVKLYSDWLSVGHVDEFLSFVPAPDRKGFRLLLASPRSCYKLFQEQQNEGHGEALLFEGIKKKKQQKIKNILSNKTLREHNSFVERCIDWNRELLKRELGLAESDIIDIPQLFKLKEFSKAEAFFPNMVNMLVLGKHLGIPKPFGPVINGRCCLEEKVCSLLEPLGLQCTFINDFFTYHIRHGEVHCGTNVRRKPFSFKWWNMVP

IC50 [nM]	Compound
32	COc1cc(C(=O)N2CC3CCC2[C@@H]3N)cc2nc(-c3cc4cccnc4n3CC3CC3)n(CC3CN(C(=O)[C@H]4C[C@@H]4C)C3)c12 (stereo partly drawn) [Example 106, (1R,4R,7R)-2-{2-[1-(cyclopropylmethyl)-1H-pyrrolo[2,3-b]pyridin-2-yl]-7-methoxy-1-({1-[(1S,2S)-2-methylcyclopropanecarbonyl]aze-tidin-3-yl}methyl)-1H-1,3-benzodiazole-5-carbonyl}-2-azabicyclo[2.2.1]heptan-7-amine]
298	COc1cc(C(=O)N2C[C@H]3CC[C@@H]2[C@@H]3N)cc2nc(-c3cc4ccccc4n3CC3CC3)n(CC3CCC(=O)N3)c12 (stereo partly drawn) [Example 275, 5-({5-[(1R,4R,7R)-7-amino-2-azabicyclo[2.2.1]heptane-2-carbonyl]-2-[1-(cyclopropylmethyl)-1H-indol-2-yl]-7-methoxy-1H-1,3-benzodiazol-1-yl}methyl)pyrrolidin-2-one]
41	COc1cc(C(=O)N2C[C@H]3CC[C@@H]2[C@@H]3N)cc2nc(-c3cc4ccccc4n3CC3CC3)n(Cc3cnn(C)c3)c12 [Example 242, (1R,4R,7R)-2-{2-[1-(cyclopropylmethyl)-1H-indol-2-yl]-7-methoxy-1-[(1-methyl-1H-pyrazol-4-yl)methyl]-1H-1,3-benzodiazole-5-carbonyl}-2-azabicyclo[2.2.1]heptan-7-amine]
128	CCOC(=O)N1CC(Cn2c(-c3cc4cccnc4n3CC3CC3)nc3cc(C(=O)N4C[C@H]5CC[C@@H]4[C@@H]5N)cc(OC)c32)C1 [Example 130, ethyl 3-({5-[(1R,4R,7R)-7-amino-2-azabicyclo[2.2.1]heptane-2-carbonyl]-2-[1-(cyclopropylmethyl)-1H-pyrrolo[2,3-b]pyridin-2-yl]-7-methoxy-1H-1,3-benzodiazol-1-yl}methyl)azetidine-1-carboxylate]
2980	COc1cc(C(=O)N2CCC[C@@H](N)C2)cc2nc(-c3cc4cccnc4n3CC3CC3)n(C3CN(S(C)(=O)=O)C3)c12 [Example 341, (3R)-1-{2-[1-(cyclopropylmethyl)-1H-pyrrolo[2,3-b]pyridin-2-yl]-1-(1-methanesulfonylazetidin-3-yl)-7-methoxy-IH-1,3-benzodiazole-5-carbonyl}piperidin-3-amine]
136	CCn1cc(Cn2c(-c3cc4cccnc4n3CC3CC3)nc3cc(C(=O)N4C[C@H](N)C[C@@H](F)C4)cc(OC)c32)cn1 [Example 501, (3R,5R)-1-{2-[1-(cyclopropylmethyl)-1H-pyrrolo[2,3-b]pyridin-2-yl]-1-[(1-ethyl-1H-pyrazol-4-yl)methyl]-7-methoxy-1H-1,3-benzodiazole-5-carbonyl}-5-fluoropiperidin-3-amine]
536	COc1cc(C(=O)N2CC3CCC2[C@@H]3N)cc2nc(-c3cc4cccnc4n3CC3CC3)n(C3CN(S(=O)(=O)c4ccc(C#N)cc4)C3)c12 (stereo partly drawn) [Example 339, 4-[(3-{5-[(1R,4R,7R)-7-amino-2-azabicyclo[2.2.1]heptane-2-carbonyl]-2-[1-(cyclopropylmethyl)-1H-pyrrolo[2,3-b]pyridin-2-yl]-7-methoxy-1H-1,3-benzodiazo1-1-yl}azetidin-1-yl)sulfonyl]benzonitrile]
193	CCC(=O)N1CC(Cn2c(-c3cc4cccnc4n3CC3CC3)nc3cc(C(=O)N4C[C@H]5CC[C@@H]4[C@@H]5N)cc(OC)c32)C1 [Example 134, 1-[3-({5-[(1R,4R,7R)-7-amino-2-azabicyclo[2.2.1]heptane-2-carbonyl]-2-[1-(cyclopropylmethyl)-1H-pyrrolo[2,3-b]pyridin-2-yl]-7-methoxy-1H-1,3-benzodiazol-1-yl}methyl)azetidin-1-yl]propan-1-one]
116	COc1cc(C(=O)N2C[C@H]3CC[C@@H]2[C@@H]3N)cc2nc(-c3cc4cccnc4n3CC3CC3)n(C[C@@H]3CCN(c4cncnc4C#N)C3)c12 [Example 214, 5-[(3R)-3-({5-[(1R,4R,7R)-7-amino-2-azabicyclo[2.2.1]heptane-2-carbonyl]-2-[1-(cyclopropylmethyl)-1H-pyrrolo[2,3-b]pyridin-2-yl]-7-methoxy-1H-1,3-benzodiazol-1-yl}methyl)pyrrolidin-1-yl]pyrimidine-4-carbonitrile]

The remaining lines, values behind:

Compound	IC50 [nM]
N[C@@H]1[C@@H]2CC[C@H]1N(C(=O)c1ccc3c(c1)nc(-c1cc4ccccc4n1CC1CC1)n3CC1CN(C(=O)c3ccncc3)C1)C2 [Example 175, (1R,4R,7R)-2-{2-[1-(cyclopropylmethyl)-1H-indol-2-yl]-1-{[1-(pyridine-4-carbonyl)azetidin-3-yl]methyl}-1H-1,3-benzodiazole-5-carbonyl}-2-azabicyclo[2.2.1]heptan-7-amine]	51
COc1nccc(N2CCC(Cn3c(-c4cc5cccnc5n4CC4CC4)nc4cc(C(=O)N5CC6CCC5[C@@H]6N)cc(OC)c43)CC2)n1 (stereo partly drawn) [Example 222, (1R.,4R,7R)-2-{2-[1-(cyclopropylmethyl)-1H-pyrrolo[2,3-b]pyridin-2-yl]-7-methoxy-1-{[1-(2-methoxypyrimidin-4-yl)piperidin-4-yl]methyl}-1H-1,3-benzodiazole-5-carbonyl}-2-azabicyclo[2.2.1]heptan-7-amine]	166
COc1cc(C(=O)N2CC3CCC2[C@@H]3N)cc2nc(-c3cc4ccccc4n3CC3CC3)n(CC3CCN(c4ncccn4)C3)c12 (stereo in doubt) [Example 228, (1R,4R,7R)-2-{2-[1-(cyclopropylmethyl)-1H-indol-2-yl]-7-methoxy-1-{[(3S)-1-(pyrimidin-2-yl)pyrrolidin-3-yl]methyl}-1H-1,3-benzodiazole-5-carbonyl}-2-azabicyclo[2.2.1]heptan-7-amine]	99
COc1cc(C(=O)N2C[C@H]3CC[C@@H]2[C@@H]3N)cc2nc(-c3cc4cccnc4n3CC3CC3)n(C3CN(C(=O)c4cnc(NCC(C)(C)O)nc4)C3)c12 [Example 185, 1-{[5-(3-{5-[(1R,4R,7R)-7-amino-2-azabicyclo[2.2.1]heptane-2-carbonyl]-2-[1-(cyclopropylmethyl)-1H-pyrrolo[2,3-b]pyridin-2-yl]-7-methoxy-1H-1,3-benzodiazol-1-yl}azetidine-1-carbonyl)pyrimidin-2-yl]amino}-2-methylpropan-2-ol]	316
COc1cc(C(=O)N2C[C@H]3CC[C@@H]2[C@@H]3N)cc2nc(-c3cc4cccnc4n3CC3CC3)n(CC3CN(c4cccc(C#N)n4)C3)c12 [Example 21, 6-[3-({5-[(1R,4R,7R)-7-amino-2-azabicyclo[2.2.1]heptane-2-carbonyl]-2-[1-(cyclopropylmethyl)-1H-pyrrolo[2,3-b]pyridin-2-yl]-7-methoxy-1H-1,3-benzodiazol-1-yl}methyl)azetidin-1-yl]pyridine-2-carbonitrile]	57
COc1cc(C(=O)N2CC3CCC2[C@@H]3N)cc2nc(-c3cc4cccnc4n3CC3CC3)n(Cc3cnn(-c4ccncc4)c3)c12 (stereo partly drawn) [Example 409, (7R)-2-{2-[1-(cyclopropylmethyl)-1H-pyrrolo[2,3-b]pyridin-2-yl]-7-methoxy-1-{[1-(pyridin-4-yl)-1H-pyrazol-4-yl]methyl}-1H-1,3-benzodiazole-5-carbonyl)-2-azabicyclo[2.2.1]heptan-7-amine]	82
COc1cc(C(=O)N2C[C@H](N)C[C@@H](F)C2)cc2nc(-c3cc4cccnc4n3CC3CC3)n(Cc3cnn(-c4cncc(F)c4)c3)c12 [Example 406, (3R,5R)-1-{2-[1-(cyclopropylmethyl)-1H-pyrrolo[2,3-b]pyridin-2-yl]-1-{[1-(5-fluoropyridin-3-yl)-1H-pyrazol-4-yl]methyl}-7-methoxy-1H-1,3-benzodiazole-5-carbonyl}-5-fluoropiperidin-3-amine]	69
COC(=O)NCCn1c(-c2cc3cccnc3n2CC2CC2)nc2cc(C(=O)N3C[C@H]4CC[C@@H]3[C@@H]4N)cc(OC)c21 [Example 284, methyl N-(2-{5-[(1R,4R,7R)-7-amino-2-azabicyclo[2.2.1]heptane-2-carbonyl]-2-[1-(cyclopropylmethyl)-1H-pyrrolo[2,3-b]pyridin-2-yl]-7-methoxy-1H-1,3-benzodiazol-1-yl}ethyl)carbamate]	925
COc1cc(C(=O)N2C[C@H]3CC[C@@H]2[C@@H]3N)cc2nc(-c3cc4cccnc4n3CC3CC3)n(CC3CN(C(=O)C4CCC4)C3)c12 [Example 114, (1R,4R,7R)-2-{1-[(1-cyclobutanecarbonylazetidin-3-yl)methyl]-2-[1-(cyclopropylmethyl)-1H-pyrrolo[2,3-b]pyridin-2-yl]-7-methoxy-1H-1,3-benzodiazole-5-carbonyl}-2-azabicyclo[2.2.1]heptan-7-amine]	54
COc1cc(C(=O)N2C[C@H]3CC[C@@H]2[C@@H]3N)cc2nc(-c3cc4ccccc4n3CC3CC3)n(Cc3cccs3)c12 [Example 256, (1R,4R,7R)-2-{2-[1-(cyclopropylmethyl)-1H-indol-2-yl]-7-methoxy-1-[(thiophen-2-yl)methyl]-1H-1,3-benzodiazole-5-carbonyl}-2-azabicyclo[2.2.1]heptan-7-amine]	41
COc1cc(C(=O)N2CC3CCC2[C@@H]3N)cc2nc(-c3cc4ccccc4n3CC3CC3)n(Cc3cnn(-c4cncnc4)c3)c12 (stereo partly drawn) [Example 379, (7R)-2-{2-[1-(cyclopropylmethyl)-1H-indol-2-yl]-7-methoxy-1-{[1-(pyrimidin-5-yl)-1H-pyrazol-4-yl]methyl}-1H-1,3-benzodiazole-5-carbonyl}-2-azabicyclo[2.2.1]heptan-7-amine]	37
COc1cc(C(=O)N2C[C@H]3CC[C@@H]2[C@@H]3N)cc2nc(-c3cc4cccnc4n3CC3CC3)n(C[C@H]3CCN(c4ccnc(C#N)n4)C3)c12 [Example 204, 4-[(3S)-3-({5-[(1R,4R,7R)-7-amino-2-azabicyclo[2.2.1]heptane-2-carbonyl]-2-[1-(cyclopropylmethyl)-1H-pyrrolo[2,3-b]pyridin-2-yl]-7-methoxy-1H-1,3-benzodiazol-1-yl}methyl)pyrrolidin-1-yl]pyrimidine-2-carbonitrile]	35
